Reference: patent US11253524B2 (Gilead Sciences, Inc., priority 2018, dated 2022)

Columns and labels:
[1] = In vivo BIC metabolism, plasma profile after oral [14C]BIC, mouse; conditions: transgenic mice, 0 to 48 hours post dose, ND = not detected
Description: Metabolic pathways included hydroxylation, oxidative defluorination, direct glucuronidation, and oxidation followed by phase II conjugation. In the monkey, BIC was metabolized through the oxidative pathways to a greater extent compared to rat and human.

OATP2B1 = molecular target: T1, OATP2B1 (Homo sapiens, UniProt O94956); assay: OATP2B1 inhibition assay, 3H-E3S uptake, MDCKII cells; assay type: cell-based
T1 construct: expressed in transfected cells; host or cells: MDCKII cells
T1 sequence (O94956 1-709): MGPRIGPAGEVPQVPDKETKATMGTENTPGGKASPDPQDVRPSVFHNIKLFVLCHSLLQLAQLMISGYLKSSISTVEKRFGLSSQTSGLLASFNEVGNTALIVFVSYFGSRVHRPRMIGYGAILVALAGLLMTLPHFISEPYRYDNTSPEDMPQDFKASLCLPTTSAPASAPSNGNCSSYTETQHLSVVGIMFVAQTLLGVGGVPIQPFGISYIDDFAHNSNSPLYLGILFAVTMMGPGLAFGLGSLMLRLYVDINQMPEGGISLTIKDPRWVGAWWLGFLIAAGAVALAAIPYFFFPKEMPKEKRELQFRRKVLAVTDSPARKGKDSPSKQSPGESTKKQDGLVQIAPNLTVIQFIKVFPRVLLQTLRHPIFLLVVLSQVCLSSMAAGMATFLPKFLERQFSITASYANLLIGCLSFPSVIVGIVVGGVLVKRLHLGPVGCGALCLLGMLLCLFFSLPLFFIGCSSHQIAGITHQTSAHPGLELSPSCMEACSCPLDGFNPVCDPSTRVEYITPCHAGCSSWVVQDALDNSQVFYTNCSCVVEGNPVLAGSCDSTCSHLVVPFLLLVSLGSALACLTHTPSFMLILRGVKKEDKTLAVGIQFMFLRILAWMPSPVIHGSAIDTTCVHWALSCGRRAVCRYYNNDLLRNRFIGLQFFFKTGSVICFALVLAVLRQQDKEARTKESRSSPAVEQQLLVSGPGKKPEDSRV
Procedure: MDCKII-Mock and OATP2B1-transfected cells (1×10^5 cells each) were seeded 24 hr prior to assay. Pre-rinsed cells were incubated for 2 minutes with 0.2 μM ^3H-E3S in HK buffer in the presence of various concentrations of test compound or positive control fluvastatin. After the experiment cells were rinsed with Krebs-Henseleit buffer and lysed with 0.1 M NaOH. The amount of substrate inside the cells was determined by liquid scintillation reader.
(§1) Percent inhibition was calculated according to the following equation: % inhibition=[1−{[OATP]i−[WT]ni}/{[OATP]ni−[WT]ni}]*100 where: [OATP]i represent the substrate accumulation in the presence of test compound for either OATP1B1, OATP1B3, or OATP2B1 cells; [OATP]ni represents the substrate accumulation in the absence of test compound for either OATP1B1, OATP1B3, or OATP2B1 cells, respectively; and [WT]ni represents the substrate accumulation in the absence of test compound for wild type cells or Mock cells, respectively. IC50 Determination in Transporter Assays
(§2) IC50 was determined according to the procedures described in Example 5. […] Results are reported as NIO (no interaction observed).

[2] = test system: cryopreserved hepatocytes; assay: Metabolites of [14C]BIC in cryopreserved hepatocytes, human; assay type: in vitro ADME; conditions: 4 hours, [14C]BIC 20 μM
Description: (§3) Metabolic pathways included hydroxylation (3 variants), N-dealkylation, and direct glucuronidation. All human metabolites were also observed in nonclinical species. Using the hepatocyte system where the full range of hepatic metabolic enzymes are represented, it appeared that the metabolism of BIC was extensive in monkey and dog but lower in rat and human.

[3] = test system: cryopreserved hepatocytes; assay: Metabolites of [14C]BIC in cryopreserved hepatocytes, dog; assay type: in vitro ADME; conditions: Beagle Dog hepatocytes, 4 hours, [14C]BIC 20 μM
Description: as §3

[4] = test system: cryopreserved hepatocytes; assay: Metabolites of [14C]BIC in cryopreserved hepatocytes, rat; assay type: in vitro ADME; conditions: Wister-Han Rat hepatocytes, 4 hours, [14C]BIC 20 μM
Description: as §3

[5] = test system: cryopreserved hepatocytes; assay: Metabolites of [14C]BIC in cryopreserved hepatocytes, monkey; assay type: in vitro ADME; conditions: Cynomolgus Monkey hepatocytes, 4 hours, [14C]BIC 20 μM
Description: as §3

OATP1B3 = molecular target: T2, OATP1B3 (Homo sapiens, UniProt Q9NPD5); assay: OATP1B3 inhibition assay using 3H-E217βG as probe substrate, HEK293FT cells; assay type: cell-based; set-up: expressed in transfected cells
T2 sequence (Q9NPD5 1-702): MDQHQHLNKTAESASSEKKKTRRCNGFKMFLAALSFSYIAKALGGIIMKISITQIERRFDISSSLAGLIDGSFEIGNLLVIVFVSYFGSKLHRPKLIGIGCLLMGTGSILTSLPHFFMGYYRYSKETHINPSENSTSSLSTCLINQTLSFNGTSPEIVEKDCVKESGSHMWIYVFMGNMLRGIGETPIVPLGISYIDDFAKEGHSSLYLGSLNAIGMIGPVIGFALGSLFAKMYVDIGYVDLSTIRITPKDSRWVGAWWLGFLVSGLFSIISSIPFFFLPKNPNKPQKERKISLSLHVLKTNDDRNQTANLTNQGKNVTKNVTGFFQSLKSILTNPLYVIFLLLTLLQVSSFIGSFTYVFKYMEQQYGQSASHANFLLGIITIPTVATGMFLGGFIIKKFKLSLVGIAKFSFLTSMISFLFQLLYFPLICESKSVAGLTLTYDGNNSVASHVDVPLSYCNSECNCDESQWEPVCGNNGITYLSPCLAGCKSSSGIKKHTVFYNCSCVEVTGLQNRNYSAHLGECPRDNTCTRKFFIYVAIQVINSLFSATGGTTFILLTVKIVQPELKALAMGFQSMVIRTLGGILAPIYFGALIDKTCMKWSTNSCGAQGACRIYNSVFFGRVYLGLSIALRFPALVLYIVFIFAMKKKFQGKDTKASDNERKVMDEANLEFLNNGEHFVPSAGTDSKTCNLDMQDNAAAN
Procedure: HEK293FT-Mock and OATP-transfected cells (1×10^5 cells each) were seeded 24 hr prior to assay. Pre-rinsed ells were incubated for 3 minutes with 1 μM ^3H-E217βG in HK buffer in the presence of various concentrations of test compound or positive control rifampicin. After the experiment cells were rinsed with Krebs-Henseleit buffer and lysed with 0.1 M NaOH. The amount of substrate inside the cells was determined by liquid scintillation reader.
as §1, §2

[6] = Precipitation of test compound in transporter assay buffer; assay type: physicochemical; conditions: 300 μM, MRP2 assay buffer

SMILES	% of Total Radioactivity in AUC Pooled Plasma [1] [%]	IC50 (μM) (OATP2B1; NIO = no interaction observed)	Fraction of Radiochromatogram (%) [2] [%]	Fraction of Radiochromatogram (%) [3] [%]	Fraction of Radiochromatogram (%) [4] [%]	Fraction of Radiochromatogram (%) [5] [%]	IC50 (μM) (OATP1B3; NIO = no interaction observed)	IC50 (OATP2B1; NIO = no interaction observed) [µM]	inhibition at 2 min, 100 µM (OATP2B1; human, MDCKII cells transfected with OATP2B1, probe 3H-E3S (0.2 μM), at 100 μM, read-out: Maximum inhibition at highest test conc. (% of control)) [%]	IC50 (OATP1B3; NIO = no interaction observed) [µM]	inhibition at 3 min, 100 µM (OATP1B3; human, HEK293FT cells transfected with OATP1B3, probe 3H-E217βG (1 μM), at 100 μM, read-out: Maximum inhibition at highest test conc. (% of control)) [%]	Precipitation in assay buffer [6]
O=C(NCc1c(F)cc(F)cc1F)c1cn2c(c(O)c1=O)C(=O)N1[C@H]3CC[C@H](C3)O[C@@H]1C2 [BIC, bictegravir, reference compound]	95.5	NIO	93.9	78.7	91.5	52.4	NIO	–	–	–	–	–
O=C(NCc1c(F)cc(F)c(OS(=O)(=O)O)c1F)c1cn2c(c(O)c1=O)C(=O)N1C(C2)O[C@@H]2CC[C@H]1C2 (stereo partly drawn) [Metabolite M20]	–	–	–	–	–	–	–	> 100	26	> 100	49	Precipitation was observed
